# Measurements reported in US20110112110A1, “ANTIPROLIFERATIVE COMPOUNDS AND THERAPEUTIC USES THEREOF” (UNIVERSITA' DEGLISTUDI DI MILANO- BICOCCA, priority 2008, published 2011).
# Molecular target: T1, BaF3 cells transformed with NPM/ALK (Homo sapiens, UniProt Q9UM73)
# T1 construct: fused on or other part: P06748 (Nucleophosmin)
# Assay: Tritiated thymidine uptake cell proliferation assay
# Type: cell-based
# Settings: read-out: IC50 values on the proliferation of BaF3 cells transformed with NPM/ALK; 72 h incubation, 3[H]-thymidine uptake
# Experimental: Method: Tritiated Thymidine Uptake Cell Proliferation Assay
# BaF3 cells, transformed with the oncogenic fusion protein NPM/ALK, were seeded in U-bottomed 96-well plates at 10 000 cells/well in a volume of 100 μL in supplemented medium. Serial dilutions of inhibitors were added to the appropriate wells and volumes adjusted to 200 μL. Controls were treated with the equivalent volume of vehicle, DMSO, alone. Plates were incubated at 37° C. for 72 h. ^3[H-]-thymidine (1 μCi/well) was added for the last 16 h of incubation. Cells were harvested on to glass filters and ^3[H]-thymidine incorporation was measured using a scintillation counter (1430 MicroBeta, Wallac, Turku, Finland).
# T1 sequence (Q9UM73 whole entry, change not shown, the tested form may be a part): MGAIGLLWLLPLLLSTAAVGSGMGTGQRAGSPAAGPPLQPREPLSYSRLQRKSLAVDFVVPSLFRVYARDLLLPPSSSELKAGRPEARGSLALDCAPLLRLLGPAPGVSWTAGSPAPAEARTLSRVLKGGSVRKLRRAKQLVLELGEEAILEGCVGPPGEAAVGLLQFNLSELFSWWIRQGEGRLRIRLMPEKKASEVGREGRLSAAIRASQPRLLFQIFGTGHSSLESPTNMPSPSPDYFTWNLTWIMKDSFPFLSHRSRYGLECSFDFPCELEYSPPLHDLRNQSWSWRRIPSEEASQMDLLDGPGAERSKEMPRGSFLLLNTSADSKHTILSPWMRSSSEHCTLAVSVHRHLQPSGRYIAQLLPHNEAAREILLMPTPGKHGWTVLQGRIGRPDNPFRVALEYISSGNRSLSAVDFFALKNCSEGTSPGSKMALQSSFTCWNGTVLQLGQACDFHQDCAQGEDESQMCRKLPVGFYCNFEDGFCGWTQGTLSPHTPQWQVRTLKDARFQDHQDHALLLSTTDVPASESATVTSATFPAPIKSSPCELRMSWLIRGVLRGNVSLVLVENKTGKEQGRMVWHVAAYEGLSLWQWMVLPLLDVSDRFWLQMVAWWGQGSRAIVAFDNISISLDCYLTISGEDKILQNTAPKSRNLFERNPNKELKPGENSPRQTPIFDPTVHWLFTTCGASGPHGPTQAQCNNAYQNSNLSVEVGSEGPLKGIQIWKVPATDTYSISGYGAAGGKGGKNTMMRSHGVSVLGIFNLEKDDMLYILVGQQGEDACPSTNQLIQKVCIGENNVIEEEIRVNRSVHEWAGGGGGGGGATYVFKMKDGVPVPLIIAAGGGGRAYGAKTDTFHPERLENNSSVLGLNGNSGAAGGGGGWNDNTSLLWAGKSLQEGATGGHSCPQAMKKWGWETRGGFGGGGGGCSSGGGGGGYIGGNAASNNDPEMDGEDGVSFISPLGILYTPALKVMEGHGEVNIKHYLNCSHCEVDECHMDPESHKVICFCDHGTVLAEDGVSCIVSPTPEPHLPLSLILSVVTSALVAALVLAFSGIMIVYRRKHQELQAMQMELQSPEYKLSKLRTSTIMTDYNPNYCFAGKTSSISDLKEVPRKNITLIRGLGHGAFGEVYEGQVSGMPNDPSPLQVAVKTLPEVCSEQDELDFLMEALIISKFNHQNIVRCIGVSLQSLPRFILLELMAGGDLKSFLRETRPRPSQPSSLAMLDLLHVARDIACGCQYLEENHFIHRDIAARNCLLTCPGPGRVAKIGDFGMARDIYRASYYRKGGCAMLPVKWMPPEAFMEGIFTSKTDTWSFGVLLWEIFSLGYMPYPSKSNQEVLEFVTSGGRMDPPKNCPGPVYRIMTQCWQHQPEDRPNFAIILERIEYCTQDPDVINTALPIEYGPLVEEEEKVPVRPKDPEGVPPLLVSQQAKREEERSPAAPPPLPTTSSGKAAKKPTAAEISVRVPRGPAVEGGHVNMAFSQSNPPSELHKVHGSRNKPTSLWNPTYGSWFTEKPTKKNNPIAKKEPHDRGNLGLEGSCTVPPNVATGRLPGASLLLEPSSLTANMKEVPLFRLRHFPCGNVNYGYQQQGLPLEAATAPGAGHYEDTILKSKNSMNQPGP
row,GI50 [µM],Compound
1,31,CCOC(=O)c1csc(-c2ccc(-c3csnn3)cc2)n1 [r80]
2,33,CC(C)(C)c1csc(-c2ccc(-c3csnn3)cc2)n1 [r79]
3,36,CN1CCN(Cc2ccc(C(=O)Nc3nc(-c4ccc5c(c4)Cc4ccccc4-5)cs3)cc2)CC1 [r89]
4,12,O=C1Nc2ccc(Br)cc2/C1=N/Nc1nc(-c2ccc(-c3ccccc3)cc2)cs1 [r49]
5,4.8,O=C(N/N=C/c1c[nH]c2ccccc12)c1cc(-c2ccc(-c3ccccc3)cc2)[nH]n1 [r66]
6,7.6,Cc1csc(-c2ccc(-c3csnn3)cc2)n1 [r78]

# Molecular target: T2, Recombinant ALK kinase (Homo sapiens, UniProt Q9UM73)
# T2 construct: His tag (from pBlueBacHis2C vector); made in house; host or cells: insect cells, baculovirus
# Assay: ELISA-based in vitro kinase assay (ALK kinase inhibitory activity)
# Type: biochemical
# Settings: not given
# Experimental: (§1) Method: ELISA-Based In Vitro Kinase Assay
# Recombinant ALK kinase was expressed in […] insect cells using the pBlueBacHis2C baculovirus vector system and purified using an anion exchange Fast Flow Q-sepharose column (Amersham-Pharmacia Biotech) followed by HiTrap™-nickel affinity column (Amersham-Pharmacia Biotech). Purified ALK protein was used to screen inhibitors in the ELISA-based kinase assay. […] Wells were then washed with 200 μl of wash buffer (PBS-Tween 0.05%) and left to dry for at least 2 hours at 37° C. The kinase reaction was performed in the presence of 50 mM Tris pH 7.5, 5 mM MnCl2, 5 mM MgCl2, 0.3 mM ATP and purified rALK in a total volume of 100 μl/well at 30° C. for 15 minutes. For inhibitor testing the reaction mix was preincubated with the inhibitor or solvent control for 10 mins at room temperature before transferring to the ELISA plate. After the reaction wells were washed 5 times with 200 μl of wash buffer. Phosphorylated peptide was detected using 100 μl/well of a mouse monoclonal anti-phosphotyrosine antibody (clone 4G10 UpstateBiotech Ltd) diluted 1:2000 in PBS+4% BSA. After 30 minutes incubation at room temperature the antibody was removed and wells were washed as described above. 100 μl of a secondary antibody (anti-mouse IgG, Horseradish Peroxidase linked whole antibody, Amersham Pharmacia Biotech) diluted 1:1000 in PBS+4% BSA was added to each well and the plate was incubated again for 30 minutes at room temperature before washing as above. The plate was developed using 100 μl/well TMB Substrate Solution (Endogen) and the reaction was stopped by adding an equal volume of H2SO4 0.36 M. Finally, the absorbance was read at 450 nm using an Ultrospec® 300 spectrophotometer (Amersham-Pharmacia Biotech).
# T2 sequence (Q9UM73 19-1620): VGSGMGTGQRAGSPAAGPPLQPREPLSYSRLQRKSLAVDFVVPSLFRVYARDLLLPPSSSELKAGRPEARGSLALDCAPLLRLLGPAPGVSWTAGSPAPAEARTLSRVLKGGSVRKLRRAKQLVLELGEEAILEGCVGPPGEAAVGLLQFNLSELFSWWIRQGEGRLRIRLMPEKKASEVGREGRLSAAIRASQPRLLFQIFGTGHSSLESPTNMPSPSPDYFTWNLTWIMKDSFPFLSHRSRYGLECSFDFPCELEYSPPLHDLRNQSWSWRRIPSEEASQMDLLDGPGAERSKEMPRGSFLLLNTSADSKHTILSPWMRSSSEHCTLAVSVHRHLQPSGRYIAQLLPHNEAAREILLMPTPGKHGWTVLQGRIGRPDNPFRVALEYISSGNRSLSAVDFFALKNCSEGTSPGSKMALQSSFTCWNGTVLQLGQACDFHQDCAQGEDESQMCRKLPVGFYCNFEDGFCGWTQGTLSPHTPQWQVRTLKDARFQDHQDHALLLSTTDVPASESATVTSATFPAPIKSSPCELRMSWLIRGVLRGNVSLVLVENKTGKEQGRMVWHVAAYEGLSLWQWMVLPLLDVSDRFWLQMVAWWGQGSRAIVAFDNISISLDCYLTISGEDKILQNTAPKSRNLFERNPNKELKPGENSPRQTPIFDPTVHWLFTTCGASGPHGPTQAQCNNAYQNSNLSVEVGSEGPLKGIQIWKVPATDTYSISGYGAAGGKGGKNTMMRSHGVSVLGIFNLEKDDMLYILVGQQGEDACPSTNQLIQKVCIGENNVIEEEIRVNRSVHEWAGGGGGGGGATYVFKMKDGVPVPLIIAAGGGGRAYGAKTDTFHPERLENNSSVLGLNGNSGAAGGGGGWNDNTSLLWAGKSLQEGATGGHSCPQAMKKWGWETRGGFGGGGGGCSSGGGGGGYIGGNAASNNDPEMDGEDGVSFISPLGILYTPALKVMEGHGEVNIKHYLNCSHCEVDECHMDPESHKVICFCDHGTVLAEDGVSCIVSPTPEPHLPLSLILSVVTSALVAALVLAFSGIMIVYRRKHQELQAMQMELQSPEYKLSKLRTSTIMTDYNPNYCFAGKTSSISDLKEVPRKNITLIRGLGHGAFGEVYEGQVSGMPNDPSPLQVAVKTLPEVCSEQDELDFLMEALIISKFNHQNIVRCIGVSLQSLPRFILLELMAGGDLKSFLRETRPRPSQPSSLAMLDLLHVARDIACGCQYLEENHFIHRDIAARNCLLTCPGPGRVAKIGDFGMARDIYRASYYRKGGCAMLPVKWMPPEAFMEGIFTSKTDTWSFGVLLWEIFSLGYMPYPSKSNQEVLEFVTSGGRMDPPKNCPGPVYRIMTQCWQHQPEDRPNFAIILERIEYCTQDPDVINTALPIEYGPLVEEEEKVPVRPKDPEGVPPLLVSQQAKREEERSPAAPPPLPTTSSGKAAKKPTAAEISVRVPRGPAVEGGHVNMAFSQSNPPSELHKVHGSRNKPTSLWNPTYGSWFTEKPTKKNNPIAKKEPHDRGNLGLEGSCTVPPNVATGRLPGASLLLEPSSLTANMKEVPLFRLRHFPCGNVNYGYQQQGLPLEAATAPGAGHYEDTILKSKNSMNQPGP
row,IC50 [µM],Compound
1,4.3 ± 0.3,"O=C(Nc1ncc(-c2ccc3c(c2)Cc2ccccc2-3)s1)c1ccccc1I [r87, N-(5-(9H-fluoren-7-yl)thiazol-2-yl)-2-iodobenzamide]"
2,1.3 ± 0.5,"CN1CCN(Cc2ccc(C(=O)Nc3nc(-c4ccc(-c5csc(NC(=O)c6ccc(CN7CCN(C)CC7)cc6)n5)cc4)cs3)cc2)CC1 [r218, N,N′-(4,4′-(1,4-phenylene)bis(thiazolle-4,2-diyl))bis(4-((4-methylpiperazin-1-yl)methyl)benzamide)]"
3,0.75 ± 0.13,"CC(=O)Nc1ncc(-c2ccc(-c3cnc(NC(C)=O)[nH]3)cc2)[nH]1 [r114, N,N′-(5,5′-(1,4-phenylene)bis(1H-imidazole-5,2-diyl))diacetamide]"

# Same assay, conditions: purified rALK, 0.3 mM ATP, ALK peptide substrate, 30° C. 15 minutes; read-out: IC50 values on ALK
row,IC50 [µM],Compound
1,3.1 ± 0.34,Fc1ccc(-c2csc(-c3ccc(-c4csnn4)cc3)n2)cc1F [r68]
2,2.1 ± 0.7,O=c1[nH]c(-c2ccc3c(c2)[nH]c2ccccc23)cs1 [r233]
3,31 ± 5.7,"CN1CCN(C(=O)c2ccc(-c3ccc(-c4ccc(C(=O)N5CCN(C)CC5)o4)cc3)o2)CC1 [r237, (5-{4-[5-(4-Methyl-piperazine-1-carbonyl)-furan-2-yl]-phenyl}-furan-2-yl)-(4-methyl-piperazin-1-yl)-methasone]"
4,4.7 ± 0.7,N#C/C(=C\c1cccs1)c1nc(-c2ccc(-c3ccccc3)cc2)cs1 [r67]
5,11 ± 1.3,Nc1nc(-c2ccc3c(c2)Cc2ccccc2-3)cs1 [r84]
6,7.7 ± 0.2,Clc1ccc(-c2csc(-c3ccc(-c4csnn4)cc3)n2)cc1Cl [r35]
7,9.3 ± 2.9,Cc1ccc(-c2csc(-c3ccc(-c4csnn4)cc3)n2)c(C)c1 [r69]
8,27,c1cc(-c2nc(-c3ccc4c(c3)OCCCO4)cs2)ccc1-c1csnn1 [r36]
9,1.3 ± 0.4,"c1cc(-c2ccc(-c3ccoc3)cc2)co1 [r236, 1,4-di(furan-3-yl)benzene]"
10,21 ± 2.5,"Nc1ccc(-c2ccc(-c3cncs3)c(Cl)c2)cn1 [r235, 5-(3-cloro-4-(tiazol-5-il)fenil)piridin-2-ammina]"
11,46.5,Cc1nc(-c2ccc(-c3csc(-c4cnccc4C(F)(F)F)n3)cc2)no1 [r81]
12,48,CCOC(=O)c1csc(-c2ccc(-c3csnn3)cc2)n1 [r80]
13,42 ± 3.3,Nc1nc(-c2ccc(-c3cccnc3)cn2)cs1 [r121]
14,4.8 ± 0.7,"O=C(Nc1ccc(-c2ccc(-c3ncco3)nc2)cn1)c1ccc(Br)o1 [r200, 5-bromo-N-(5-(6-(oxazol-2-yl)pyridin-3-yl)pyridin-2-yl)furan-2-carboxamide]"
15,11.7,c1ccc(-c2ccc(-c3csc(-c4ccncc4)n3)cc2)cc1 [r83]
16,57 ± 5,c1ccc(-c2ccc(-c3cncs3)nc2)nc1 [r113]
17,27.3,COCCCNc1nc(-c2ccc(-c3ccccc3)cc2)cs1 [r43]
18,11 ± 0.72,O=C(Nc1nc(-c2ccc(-c3cccnc3)cn2)cs1)c1ccco1 [r124]
19,27 ± 1.6,"Brc1ccccc1-c1ccc(-c2nccs2)nc1 [r116, 5-(2-bromophenyl)-2-(thiazol-2-yl)pyridine]"
20,6.7,"O=C(Nc1ncc(-c2ccc(-c3cccnc3)cc2Cl)s1)c1ccc(Br)o1 [r128, 5-Bromo-furan-2-carboxylic acid[5-(2-chloro-4-pyridin-3-yl-phenyl)-thiazol-2-yl]-amide]"

row,IC50 [µM],Compound
1,24 ± 1.5,CC(C)(C)c1csc(-c2ccc(-c3csnn3)cc2)n1 [r79]
2,3.7 ± 0.5,"COc1ncc(-c2ccc(-c3cccnc3)cc2Cl)s1 [r262, 5-(2-cloro-4-(piridin-3-il)fenil)-2-metossitiazolo]"
3,5.5 ± 2.3,Cc1ccc(-c2csc(-c3ccc(-c4csnn4)cc3)n2)cc1 [r70]
4,4.6,"CN1CCN(Cc2ccc(C(=O)Nc3ncc(-c4ccc(-c5cccnc5)cc4Cl)s3)cc2)CC1 [r127, N-[5-(2-Chloro-4-pyridin-3-yl-phenyl)-thiazol-2-yl]-4-(4-methyl-piperazin-1-ylmethyl)-benzamide]"
5,37 ± 2.7,O=C(Nc1nc(-c2ccc(-c3cccnc3)cn2)cs1)c1ccccc1 [r122]
6,17 ± 1.5,O=C(c1ccc(Br)o1)N(C(=O)c1ccc(Br)o1)c1ccc(-c2ccc(-c3ncco3)nc2)cn1 [r201]
7,10 ± 0.73,"O=C(Nc1nc(-c2ccc3c(c2)[nH]c2ccccc23)cs1)c1ccccc1 [r158, N-[4-(9H-Carbazol-2-yl)-thiazol-2-yl]-benzamide]"
8,1.2,c1ccc2c(-c3ncc(-c4ccc(-c5cnc(-c6cccc7ccccc67)o5)cc4)o3)cccc2c1 [r19]
9,20 ± 2.3,"O=C(O)c1ccc(-c2ccc(-c3ccc(C(=O)O)o3)cc2)o1 [r239, 5,5′-(1,4-phenylene)difuran-2-carboxylic acid]"
10,8.8 ± 0.85,O=[N+]([O-])c1ccc(-c2nc(-c3ccc(-c4csnn4)cc3)no2)cc1 [r75]
11,1.6 ± 0.15,O=S(=O)(Cc1ccco1)Cc1nc(-c2ccc(-c3ccccc3)cc2)cs1 [r48]
12,1.3 ± 0.2,CN1CCN(Cc2ccc(C(=O)Nc3nc(-c4ccc5c(c4)Cc4ccccc4-5)cs3)cc2)CC1 [r89]
13,1.5 ± 0.17,O=C1Nc2ccc(Br)cc2/C1=N/Nc1nc(-c2ccc(-c3ccccc3)cc2)cs1 [r49]
14,17 ± 1.4,O=C(Nc1nc(-c2ccc3c(c2)[nH]c2ccccc23)cs1)c1ccc(-c2ccccc2)cc1 [r169]
15,3.6 ± 0.5,O=C(N/N=C/c1c[nH]c2ccccc12)c1cc(-c2ccc(-c3ccccc3)cc2)[nH]n1 [r66]
16,12 ± 1.2,"Clc1cc(-c2cccnc2)ccc1-c1cncs1 [r120, 3-(3-Chloro-4-thiazol-5-yl-phenyl)-pyridine]"
17,16 ± 4.8,c1ccc(-c2ccc(-c3csc(N4CCOCC4)n3)cc2)cc1 [r85]
18,82 ± 9,"Nc1nc(-c2ccc3c(c2)[nH]c2ccccc23)cs1 [r156, 4-(9H-Carbazol-2-yl)-thiazol-2-ylamine]"
19,14 ± 1.6,"O=C(Nc1nc(-c2ccc3c(c2)[nH]c2ccccc23)cs1)c1ccc(Br)o1 [r170, 5-Bromo-furan-2-carboxylic acid[4-(9H-carbazol-2-yl)-thiazol-2-yl]-amide]"
20,103,Cc1csc(-c2ccc(-c3csnn3)cc2)n1 [r78]

# Molecular target: T3, Recombinant Abl T315I (Homo sapiens, UniProt P00519, T315I)
# T3 construct: His tag (from pBlueBacHis2C vector); made in house; host or cells: Sf9 insect cells, baculovirus
# Assay: ELISA-based in vitro kinase assay (Abl T315I mutant kinase inhibitory activity)
# Type: biochemical
# Settings: purified Abl T315I, 0.3 mM ATP, peptide substrate
# Experimental: as §1
# Recombinant Abl T315I protein was expressed in Sf9 cells using the pBlueBacHis2C baculovirus expression vector. Abl T315I was purified using an anion exchange Fast Flow Q-sepharose column (Amersham-Pharmacia Biotech) followed by HiTrap™-nickel affinity column (Amersham-Pharmacia Biotech). Purified Abl T3151 was used in the ELISA-based kinase assay to screen inhibitors as described above. The kinase reaction was performed in the presence of 50 mM Tris pH 7.5, 1 mM MnCl2, 5 mM MgCl2, 0.3 mM ATP, peptide substrate ([…]) and purified Abl T315I.
row,IC50 [µM],Compound
1,6.43 ± 0.43,"O=C(Nc1ncc(-c2ccc3c(c2)Cc2ccccc2-3)s1)c1ccccc1I [r87, N-(5-(9H-fluoren-7-yl)thiazol-2-yl)-2-iodobenzamide]"
2,2.1,"CC(=O)Nc1ncc(-c2ccc(-c3cnc(NC(C)=O)[nH]3)cc2)[nH]1 [r114, N,N′-(5,5′-(1,4-phenylene)bis(1H-imidazole-5,2-diyl))diacetamide]"
